The record followed here is patent US20230265037A1, “METHOD FOR MAN[…] CALCIUM CITRATE BY USING SHELL AND APPLICATION THEREOF” (KOREA RESEARCH INSTITUTE OF CHEMICAL TECHNOLOGY, priority 2020, published 2023).

Where “and” joins values, the source holds several entries; their conditions need not be identical. Identical values can stand only once.

This assay in a line: Fluorine removal experiment (residual fluorine concentration of filtrate by ion concentration meter). To be noted: for removal rate: HF solution 1,000 ppm (experimental value 970 ppm), reacted 30 minutes. As for the experimental part: In order to confirm the fluorine removal rate using the powder or solution prepared in Examples 1 to 3, a fluorine removal experiment was performed by the following method, and the residual fluorine concentration of the filtrate remaining after the experiment was measured using an ion concentration meter and is shown in Tables 2 to 4. At this time, a Metrohm 930 compact IC Flex model from Metrohm was used as the ion concentration meter.
A 50% hydrofluoric acid (HF) solution with a concentration of 1,000 ppm was prepared, and so that the molar ratio of calcium ion:fluoride ion is 1:2, 2:2, 10.56 g and 21.12 g of the mono calcium citrate powder recovered in Example 1 were mixed with 1 L of water to make a solution, the hydrofluoric acid and the solution were reacted for 30 minutes, and the results are shown in Table 2.
A 50% hydrofluoric acid (HF) solution with a concentration of 1,000 ppm was prepared, 4.75 g, 9.5 g, and 19.1 g of the tricalcium citrate powder recovered in Example 2 were mixed with 1 L of water so that the molar ratio of calcium ion:fluoride ion was 1:2, 2:2, and 4:2 to form a slurry, the hydrofluoric acid and the slurry were reacted for 30 minutes, and the results are shown in Table 3. (Tricalcium citrate (C12H10Ca3O14) contains 3 moles of calcium ions per mole, so ⅓ of the theoretical amount is added.)
A 50% hydrofluoric acid (HF) solution with a concentration of 1,000 ppm was prepared, the solution in which the shells and citric acid were dissolved prepared in Example 3 was mixed with 1 L of water and reacted for 30 minutes, and the results are shown in Table 4.

[1] abbreviates: molar ratio calcium ion:fluoride ion 1:2.
[2] abbreviates: molar ratio calcium ion:fluoride ion 2:2.

Turning to `O=C([O-])CC(O)(CC(=O)O)C(=O)O.O=C([O-])CC(O)(CC(=O)O)C(=O)O.[Ca+2]` [Example 1, mono calcium citrate], the removal rate amounted to 99.25% under setting [1] and 99.77% under setting [2]. Moreover, the “fluorine removal rate (summary)” value (summary of Tables 2 and 3) is recorded as ≥ 99%.

In the case of `O=C([O-])CC(O)(CC(=O)[O-])C(=O)[O-].O=C([O-])CC(O)(CC(=O)[O-])C(=O)[O-].[Ca+2].[Ca+2].[Ca+2]` [Example 2, tricalcium citrate], the removal rate was 97.63% under setting [1]; 98.33% under setting [2]; 98.28% and 98.29% (molar ratio calcium ion:fluoride ion 4:2).
